Reference: US11992479B2, “R-fadrozole for use in the treatment of aldostonerism” (priority 2018, dated 2024)
Where two headings read alike, the source gives them in different places. Marks after values point to notes of the source that are not given here.

Tests used:
[1] = tested on: 11β-deoxycorticosterone (DOC); conditions: once daily DP13, 4-16 mg
Description: (§1) The diet consisted of 70-80 mEq/day of sodium and 80-90 mEq/day of potassium. Blood samples were obtained daily at the time points indicated in the accompanying Tables for measurements of aldosterone, 11β-deoxycorticosterone (DOC), and potassium (K^+). All of the blood samples were obtained while the subjects were seated in a resting state.
DOC was quantified by an LC-MS/MS methodology. In preparation the steroids were extracted using the Absolute/DQStereo17 Kit from Biocrates Life Sciences AG, Innsbruck, Austria. The steroids were extracted and subjected to LC-MS/MS analysis according to the manufacturer's instructions. The triple quadrupole mass spectrometer (Waters 1-Class 2D UPLC Xevo TQ-S was calibrated using the standards provided in the kit. The assays were performed as provided by the manufacturers.

[2] = tested on: ACTH-stimulated aldosterone; conditions: for Plasma aldosterone, Difference Post-ACTH vs Pre-ACTH: Day 1
[3] = for AUC0-tau: geometric mean ± geometric CV %
Procedure: (§2) There were 6 subjects treated with each dose and twelve subjects treated with placebo (two placebo-treated-subjects included with each dose group).
The blood samples were collected in K2EDTA, centrifuged and the plasma stored at −80° C. The samples were prepared for analysis by liquid/liquid extraction as follows. A 50 μL aliquot was extracted with 25 μL of methanol:water (50:50) and mixed; following which 250 μL of ammonia acetate 100 mM:ammonia hydroxide (95:5) was added and the solution was mixed. 750 μL of ethyl acetate was then added and mixed by aspirating and centrifuged at approximately 2500×g for 5 min. 400 μL of the organic layer was collected and evaporated under nitrogen at 40° C. The dried sample was reconstituted in 200 μL of ammonia acetate 10 mM:methanol:ammonia hydroxide (70:30:0.35) and centrifuged at 2000×g for 5 min. at room temperature. The extracted sample was then subjected to liquid chromatography using a Waters, Acquity, UPLC with a Gemini 3 μm NX-C18, 5×2 mm column. An injection volume of 8 μL was analyzed using Mobil phase A consisting of ammonium acetate 10 mM:ammonium hydroxide (100:0.5) and Mobile phase B consisting of methanol. The purified sample was then analyzed by mass spectrometry (LC-MS/MS). […] The effective calibration range was 0.2 to 200 ng/ml.

[4] = tested on: cortisol; assay: ACTH (Synacten) stress test: cortisol response; conditions: 16 mg/day
Procedure: For a stress test, on day 1 of the single dose phase of the study or on day 7 of the multiple dose phase of the study an ACTH (Synacten) stress test was initiated as follows. […] Blood samples were obtained 60 min post-Synacten. The samples were analyzed for aldosterone and 11β-deoxycorticosterone (DOC) by the Clinical Chemistry Unit at the University Hospital Inselspital Bern, Bern Switzerland. Aldosterone was measured using the Liaison® chemiluminescent immunoassay kit supplied by DiaSorin S.p.A. Italy. Because this assay system uses specific monoclonal antibodies for aldosterone there are no cross reactions with other major potential reactants in the serum samples. The assays were performed according to the instructions provided by the manufacturer.
Serum cortisol, estradiol, testosterone, and follicle stimulating hormone (FSH) were measured by Covance's diagnostic unit, Harrogate, UK with the ADVIA Centaur®CP system (Siemens AG). […] The ADVIA Centaur enhanced estradiol assay is a fully automated, monoclonal competitive, chemiluminescent immunoassay, and has a sensitivity of 10 pg/ml. […] The ADVIA Centaur®CP testosterone assay is a competitive, solid phase immunoassay using direct chemiluminescent technology. All of the above assays were conducted as described by the manufacture.

[5] = tested on: potassium; conditions: mean ± SEM
Description: as §2, §1

highest individual DOC value [1]: 1.92 ng/mL
highest mean increase in DOC [1]: 0.52 ng/mL
AUC0-t ([3]; 1 mg single oral dose, Day 1): 45.8 ± 4.16 ng·h/mL
Cmax ([3]; 1 mg single oral dose, Day 1): 4.68 ± 0.38 ng/mL
T1/2 ([3]; 1 mg single oral dose, Day 1): 8.19 ± 0.43 h
Tmax ([3]; 1 mg single oral dose, Day 1): 2.00 ± 0.49 h
AUC0-t ([3]; 2 mg single oral dose, Day 1): 133 ± 27.41 ng·h/mL
Cmax ([3]; 2 mg single oral dose, Day 1): 12.0 ± 1.71 ng/mL
T1/2 ([3]; 2 mg single oral dose, Day 1): 11.3 ± 1.28 h
Tmax ([3]; 2 mg single oral dose, Day 1): 2.08 ± 0.36 h
AUC0-t ([3]; 4 mg once daily oral, Day 1): 139 ± 15.0 ng·h/mL
AUC0-∞ ([3]; 4 mg once daily oral, Day 1): 167 ± 22.0 ng·h/mL
Cmax ([3]; 4 mg once daily oral, Day 1): 14.0 ± 1.6 ng/mL
T1/2 ([3]; 4 mg once daily oral, Day 1): 8.47 h
Tmax ([3]; 4 mg once daily oral, Day 1): 2.08 ± 0.28 h
AUC0-t ([3]; 4 mg once daily oral, Day 8): 154 ± 20.5 ng·h/mL
AUC0-∞ ([3]; 4 mg once daily oral, Day 8): 154 ± 20.5 ng·h/mL
Cmax ([3]; 4 mg once daily oral, Day 8): 15.1 ± 1.1 ng/mL
T1/2 ([3]; 4 mg once daily oral, Day 8): 8.58 ± 1.1 h
Tmax ([3]; 4 mg once daily oral, Day 8): 1.92 ± 0.35 h
AUC0-tau ([3]; 4 mg, Day 1): 134 ± 29.2 ng·h/mL
AUC0-tau ([3]; 4 mg, Day 8): 148 ± 33.0 ng·h/mL
AUC0-t ([3]; 8 mg once daily oral, Day 1): 281 ± 24.2 ng·h/mL
AUC0-∞ ([3]; 8 mg once daily oral, Day 1): 335 ± 31.5 ng·h/mL
Cmax ([3]; 8 mg once daily oral, Day 1): 29.4 ± 2.5 ng/mL
T1/2 ([3]; 8 mg once daily oral, Day 1): 8.82 ± 0.4 h
Tmax ([3]; 8 mg once daily oral, Day 1): 1.81 ± 0.25 h
AUC0-t ([3]; 8 mg once daily oral, Day 8): 338 ± 28.5 ng·h/mL
AUC0-∞ ([3]; 8 mg once daily oral, Day 8): 338 ± 28.5 ng·h/mL
Cmax ([3]; 8 mg once daily oral, Day 8): 37.9 ± 3.9 ng/mL
T1/2 ([3]; 8 mg once daily oral, Day 8): 8.92 ± 0.5 h
Tmax ([3]; 8 mg once daily oral, Day 8): 1.56 ± 0.26 h
AUC0-tau ([3]; 8 mg, Day 1): 274 ± 24.9 ng·h/mL
AUC0-tau ([3]; 8 mg, Day 8): 331 ± 22.5 ng·h/mL
AUC0-t ([3]; 16 mg once daily oral, Day 1): 610 ± 34.7 ng·h/mL
AUC0-∞ ([3]; 16 mg once daily oral, Day 1): 740 ± 65.8 ng·h/mL
Cmax ([3]; 16 mg once daily oral, Day 1): 66.8 ± 6.1 ng/mL
T1/2 ([3]; 16 mg once daily oral, Day 1): 9.04 ± 0.8 h
Tmax ([3]; 16 mg once daily oral, Day 1): 1.88 ± 0.41 h
AUC0-t ([3]; 16 mg once daily oral, Day 8): 725 ± 51.4 ng·h/mL
AUC0-∞ ([3]; 16 mg once daily oral, Day 8): 725 ± 51.4 ng·h/mL
Cmax ([3]; 16 mg once daily oral, Day 8): 77.4 ± 6.9 ng/mL
T1/2 ([3]; 16 mg once daily oral, Day 8): 9.67 h
Tmax ([3]; 16 mg once daily oral, Day 8): 1.88 ± 0.40 h
AUC0-tau ([3]; 16 mg, Day 1): 603 ± 15.8 ng·h/mL
AUC0-tau ([3]; 16 mg, Day 8): 714 ± 19.1 ng·h/mL
absorption (Tmax) ([3]; all dose levels): absorbed rapidly at all dose levels
dose proportionality of Cmax and AUC0-∞ ([3]; all dose levels): dose-proportional
cortisol before ACTH, the one subject below guideline [4]: 324 nmol/L
cortisol in response to ACTH, the one subject below guideline ([4]; guideline 552 nmol/L): 504 nmol/L
SMILES: N#Cc1ccc([C@H]2CCCc3cncn32)cc1.O=P(O)(O)O [DP13, (R)-(+)-5-(p-cyanophenyl)-5,6,7,8-tetrahydroimidazolium[1,5-a]pyridine dihydrogen phosphate]
Plasma levels of Aldosterone, Pre-ACTH ([2]; 4 mg once daily, Day 7, 09:30 h ([…] post-dose), mean ± SEM): 203.5 ± 26.7 pmol/L
Plasma levels of Aldosterone, Post-ACTH ([2]; 4 mg once daily, Day 7, 11:00 h, ACTH i.v. at 10:00 h, mean ± SEM): 181.1 ± 14.3^b pmol/L
Plasma levels of Aldosterone, Pre-ACTH ([2]; 8 mg once daily, Day 7, 09:30 h, mean ± SEM): 121.0 ± 14.0 pmol/L
Plasma levels of Aldosterone, Post-ACTH ([2]; 8 mg once daily, Day 7, 11:00 h, mean ± SEM): 115.5 ± 10.6^b pmol/L
Plasma levels of Aldosterone, Pre-ACTH ([2]; 16 mg once daily, Day 7, 09:30 h, mean ± SEM): 102.2 ± 13.4 pmol/L
Plasma levels of Aldosterone, Post-ACTH ([2]; 16 mg once daily, Day 7, 11:00 h, mean ± SEM): 103.4 ± 11.1^b pmol/L
effect on aldosterone increase elicited by ACTH ([2]; 4, 8, or 16 mg once daily oral, day 7): able to prevent the 2- to 3-fold increases in aldosterone elicited by ACTH
Plasma aldosterone, Difference Post-ACTH vs Pre-ACTH ([2]; single dose 1 mg): (−6) pmol/L
Plasma levels of Aldosterone, Pre-ACTH ([2]; single dose 1 mg, Day 1, 09:30 h, mean ± SD, N = six): 99 ± 13 pmol/L
Plasma levels of Aldosterone, Post-ACTH ([2]; single dose 1 mg, Day 1, 11:00 h, mean ± SD, N = six): 94 ± 6^a pmol/L
Plasma aldosterone, Difference Post-ACTH vs Pre-ACTH ([2]; single dose 2 mg): (−12) pmol/L
Plasma levels of Aldosterone, Pre-ACTH ([2]; single dose 2 mg, Day 1, 09:30 h, mean ± SD, N = six): 132 ± 22 pmol/L
Plasma levels of Aldosterone, Post-ACTH ([2]; single dose 2 mg, Day 1, 11:00 h, mean ± SD, N = six): 120 ± 20^a pmol/L
Blood levels of potassium ([5]; 4 mg once daily, Day 1 (08:00 h), pretreatment): 4.4 ± 0.6 mmol/L
Blood levels of potassium ([5]; 4 mg once daily, Day 8, 08:00 h pre-dose): 4.8 ± 0.8^a,b mmol/L
Blood levels of potassium ([5]; 8 mg once daily, Day 1 (08:00 h), pretreatment): 4.3 ± 0.07 mmol/L
Blood levels of potassium ([5]; 8 mg once daily, Day 8, 08:00 h pre-dose): 4.6 ± 0.09^a,b mmol/L
Blood levels of potassium ([5]; 16 mg once daily, Day 1 (08:00 h), pretreatment): 4.4 ± 0.11 mmol/L
Blood levels of potassium ([5]; 16 mg once daily, Day 8, 08:00 h pre-dose): 4.7 ± 0.06^a,b mmol/L
